In data set [1] the target is T1, Myeloperoxidase (Homo sapiens) (UniProt P05164).
T1 sequence (whole entry): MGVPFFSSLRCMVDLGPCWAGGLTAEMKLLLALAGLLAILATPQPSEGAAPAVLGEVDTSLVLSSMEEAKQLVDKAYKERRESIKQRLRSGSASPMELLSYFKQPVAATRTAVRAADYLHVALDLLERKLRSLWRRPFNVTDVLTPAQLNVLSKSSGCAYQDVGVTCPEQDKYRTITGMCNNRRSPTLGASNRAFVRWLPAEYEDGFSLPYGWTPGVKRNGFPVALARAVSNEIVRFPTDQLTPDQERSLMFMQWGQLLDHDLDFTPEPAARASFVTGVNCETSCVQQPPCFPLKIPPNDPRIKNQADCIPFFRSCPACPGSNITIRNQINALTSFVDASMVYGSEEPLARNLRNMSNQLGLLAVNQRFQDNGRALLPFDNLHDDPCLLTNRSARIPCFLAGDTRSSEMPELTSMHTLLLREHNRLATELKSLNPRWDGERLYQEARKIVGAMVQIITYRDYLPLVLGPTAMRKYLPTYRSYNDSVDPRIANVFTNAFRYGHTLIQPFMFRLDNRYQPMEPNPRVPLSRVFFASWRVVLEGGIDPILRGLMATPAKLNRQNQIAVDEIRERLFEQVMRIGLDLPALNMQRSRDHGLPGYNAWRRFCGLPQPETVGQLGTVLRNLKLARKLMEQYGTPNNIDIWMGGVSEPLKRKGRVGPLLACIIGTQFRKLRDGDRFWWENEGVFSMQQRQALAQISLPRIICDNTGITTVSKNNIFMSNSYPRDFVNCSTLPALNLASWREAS
Nature of the data set: Inhibition of human leukocyte MPO chlorinating activity using hydrogen peroxide as substrate at 20 uM preincubated for 15 mins followed by substrate addition and measured after 8 mins relative to control. The conditions noted are these: time 23.0 min.

In data set [2] the target is T1, Myeloperoxidase (Homo sapiens). Nature of the data set: Inhibition of human leukocyte MPO peroxidase activity using hydrogen peroxide as substrate by fluorescence based analysis.
Data set [3] is described as follows: Antioxidant activity assessed as taurine chloramine scavenging activity incubated for 15 mins. The format is functional.
For data set [4], the system named is Neutrophil. Nature of the data set: Inhibition of HOCl production in human neutrophil at 20 uM incubated for 1 hrs in presence of PMA. It counts as functional, cell-based.
A further data set has as its system dHL-60. Kind of data set: Inhibition of HOCl production in human dHL-60 cells at 20 uM incubated for 1 hrs in presence of PMA. It counts as functional, cell-based.
The test system of data set [5] is Neutrophil. Nature of the data set: Inhibition of MSU-induced NETosis in human neutrophil assessed as reduction in release of large DNA scaffolds at 20 uM incubated for 90 mins by sytox green staining based fluorescence microscopic analysis. It counts as functional, cell-based.
The subject of data set [6] is Neutrophil. Kind of data set: Inhibition of MSU-induced NETosis in human neutrophil assessed as reduction in nuclear expansion at 20 uM incubated for 90 mins by sytox green staining based fluorescence microscopic analysis. It counts as functional, cell-based.
Data set [7] is described as follows: Reactivity of the compound in phosphate buffer at pH 7.4 assessed as compound oxidation by measuring decrease in fluorescence spectra in presence of MPO and chloride by fluorescence microplate reader. The format is physicochemical.
In data set [8] the test system is Mus musculus. Nature of the data set: Downregulation of IL-6 level in MSU-induced gouty arthritic male C57BL/6 mouse model at 30 mg/kg, ip preadministered with compound for 30 mins followed by MSU addition and measured after 6 hrs by ELISA. It counts as functional, organism-based. As to conditions: time 6.5 hrs. A general note: ELISA stands for enzyme-linked immunosorbent assay.

Data set [9] concerns Mus musculus. Nature of the data set: Reduction in total peroxidase activity in MSU-induced gouty arthritic male C57BL/6 mouse model at 30 mg/kg, ip preadministered with compound for 30 mins followed by MSU addition and measured after 6 hrs. As to conditions: time 6.5 hrs. It counts as functional, organism-based.
Data set [10] relates to Mus musculus. Nature of the data set: Downregulation of IL-1beta level in MSU-induced gouty arthritic male C57BL/6 mouse model at 30 mg/kg, ip preadministered with compound for 30 mins followed by MSU addition and measured after 6 hrs by ELISA. It counts as functional, organism-based. The conditions noted are these: time 6.5 hrs.
The nature of data set [11]: Reactivity with Hypochlorous acid (HOCl) in phosphate buffer at pH 7.4 assessed as fluorescence decay at 20 uM measured within 1 sec by stopped-flow spectrophotometric analysis. The format is physicochemical. The conditions noted are these: pH 7.4, 1 s.
Data set [12] is described as follows: Reactivity of the compound in phosphate buffer at pH 7.4 assessed as compound oxidation by measuring decrease in fluorescence spectra in presence of H2O2 and chloride by fluorescence microplate reader. It counts as physicochemical.
Data set [13] relates to Mus musculus. Nature of the data set: Anti-inflammatory activity against MSU-induced gouty arthritis in male C57BL/6 mouse model assessed as prevention of paw edema at 0.3 mg/kg, ip preadministered with compound for 30 mins followed by MSU administration and measured for 4 hrs by plethysmometer. It counts as functional, organism-based.
Data set [14] is described as follows: Reactivity of the compound in phosphate buffer at pH 7.4 assessed as compound oxidation by measuring decrease in fluorescence spectra in presence of MPO by fluorescence microplate reader. The format is physicochemical.
Data set [15] concerns TERT-RPE1. Nature of the data set: Cytotoxicity against human hTERT-RPE1 cells assessed as reduction in cell viability at 50 uM measured after 72 hrs by XTT assay. The format is toxicity, cell-based. The conditions noted are these: tert-rpe1, 72 h. Background: Tetrazolium assays rely on reduction of a dye to a coloured formazan, in cell work by metabolically active cells.

The test system of data set [16] is Mus musculus. Kind of data set: Anti-inflammatory activity against MSU-induced gouty arthritis in male C57BL/6 mouse model assessed as prevention of paw edema at 3 to 30 mg/kg, ip preadministered with compound for 30 mins followed by MSU administration and measured for 1 to 4 hrs by plethysmometer. It counts as functional, organism-based. As to conditions: dose 3-30 mg/kg, time lower 1.5 hrs, time upper […].

Data set [17] in a line: Reactivity of the compound in phosphate buffer at pH 7.4 assessed as compound oxidation by measuring decrease in fluorescence spectra in presence of H2O2 by fluorescence microplate reader. The format is physicochemical.
The target in data set [18] is Poly [ADP-ribose] polymerase 1 (Homo sapiens) (UniProt P09874). Kind of data set: Inhibition of PARP1-induced ADP-ribosylation in human hTERT-RPE1 cells at 1 to 50 uM preincubated with compound for 1 hrs followed by H2O2 addition and measured after 10 mins. The format is cell-based. The conditions noted are these: dose 1-50 µM, time 70.0 min.
Data set [19] is described as follows: Reactivity of the compound in phosphate buffer at pH 7.4 assessed as compound oxidation by measuring decrease in fluorescence spectra in presence of MPO, H2O2 and tyrosine by fluorescence microplate reader. It counts as physicochemical.
Data set [20] concerns the target T1, Myeloperoxidase (Homo sapiens). Kind of data set: Reversible inhibition of human leukocyte MPO using hydrogen peroxide as substrate assessed as restoration of MPO peroxidase activity at 20 uM incubated for 30 mins and measured after dilution using acetate buffer in presence of TMB.
For data set [21], the system named is Mus musculus. Kind of data set: Anti-inflammatory activity against MSU-induced gouty arthritis in male C57BL/6 mouse model assessed as prevention of paw edema at 3 to 30 mg/kg, ip preadministered with compound for 30 mins followed by MSU administration and measured for 6 hrs by plethysmometer. It counts as functional, organism-based. The conditions noted are these: dose 3-30 mg/kg, time 6.5 hrs.

Data set [22] relates to TERT-RPE1. Kind of data set: Cytotoxicity against human hTERT-RPE1 cells assessed as reduction in cell viability at 2 to 50 uM measured after 72 hrs by XTT assay. The conditions noted are these: tert-rpe1, 72 h, dose 2-50 µM. The format is toxicity, cell-based.
In data set [23] the test system is Mus musculus. Kind of data set: Anti-inflammatory activity against MSU-induced gouty arthritis in male C57BL/6 mouse model assessed as prevention of paw edema at 3 to 30 mg/kg, ip preadministered with compound for 30 mins followed by MSU administration and measured upto 4 hrs by plethysmometer. The format is functional, organism-based. As to conditions: dose 3-30 mg/kg.

Data set [24] has as its system Mus musculus. Nature of the data set: Anti-inflammatory activity against MSU-induced gouty arthritis in male C57BL/6 mouse model assessed as inhibition of paw edema at 34 mg/kg, po preadministered with compound for 1 hrs followed by MSU administration and measured for 6 hrs by plethysmometer. It counts as functional, organism-based. The conditions noted are these: time 7.0 hrs.

Data set [25] has as its system Mus musculus. Kind of data set: Anti-inflammatory activity against MSU-induced gouty arthritis in male C57BL/6 mouse model assessed as prevention of paw edema at 30 mg/kg, ip preadministered with compound for 30 mins followed by MSU administration and measured upto 4 hrs by plethysmometer. The format is functional, organism-based.

Here are results for 13 compounds from ChEMBL document CHEMBL5523748, “Targeting Myeloperoxidase Ameliorates Gouty Arthritis: A Virtual Screening Success Story” (J Med Chem, 2024).

Active and inactive are the calls of the source. No cut-off for these calls is given here.

Poly [ADP-ribose] polymerase 1 (Homo sapiens), sequence (P09874 whole entry): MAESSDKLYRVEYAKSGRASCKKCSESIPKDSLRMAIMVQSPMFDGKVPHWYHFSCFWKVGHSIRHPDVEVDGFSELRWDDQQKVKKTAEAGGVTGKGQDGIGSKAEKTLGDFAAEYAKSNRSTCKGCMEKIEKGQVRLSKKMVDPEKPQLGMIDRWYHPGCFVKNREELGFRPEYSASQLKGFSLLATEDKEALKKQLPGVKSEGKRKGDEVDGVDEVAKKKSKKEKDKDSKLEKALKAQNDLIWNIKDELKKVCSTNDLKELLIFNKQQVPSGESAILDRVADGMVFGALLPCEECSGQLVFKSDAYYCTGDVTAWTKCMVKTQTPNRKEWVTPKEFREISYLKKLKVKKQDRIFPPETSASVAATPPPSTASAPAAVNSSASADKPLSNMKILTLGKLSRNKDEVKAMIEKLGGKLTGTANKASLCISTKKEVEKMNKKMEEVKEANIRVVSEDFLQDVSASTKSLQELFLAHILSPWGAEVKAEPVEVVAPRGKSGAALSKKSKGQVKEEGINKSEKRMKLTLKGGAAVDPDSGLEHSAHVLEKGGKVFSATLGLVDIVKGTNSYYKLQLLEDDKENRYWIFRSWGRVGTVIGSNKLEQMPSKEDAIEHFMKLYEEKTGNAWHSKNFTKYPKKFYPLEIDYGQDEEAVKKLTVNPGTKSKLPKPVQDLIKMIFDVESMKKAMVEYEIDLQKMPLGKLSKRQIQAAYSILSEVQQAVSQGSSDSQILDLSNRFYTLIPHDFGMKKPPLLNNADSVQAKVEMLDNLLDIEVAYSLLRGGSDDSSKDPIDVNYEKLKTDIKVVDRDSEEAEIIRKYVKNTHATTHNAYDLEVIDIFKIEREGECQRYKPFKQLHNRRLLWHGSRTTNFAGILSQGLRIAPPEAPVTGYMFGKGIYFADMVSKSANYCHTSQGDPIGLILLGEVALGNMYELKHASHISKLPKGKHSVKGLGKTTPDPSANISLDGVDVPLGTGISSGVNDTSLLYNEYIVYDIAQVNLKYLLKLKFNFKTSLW

In the case of `COc1cc(/C=N/NC(=O)c2ccoc2C)ccc1OCCN1CCCCC1`, in [1], the inhibition result was “inactive”.
Consider `O=c1c2cnc3cc(C(F)(F)F)ccc3c2sc2nncn12`, for which the inhibition result in [1] and in data set [2] was “inactive” each time.
Consider `CN(C)CCc1c(C#N)c(=O)ncn1Cc1ccccc1`, for which the inhibition entry in data set [1] and in data set [2] was “inactive” throughout.
For the compound `COc1ccc(C(=O)Nc2ccc(-c3nnc(S)o3)cc2)cc1`, in data set [3], the result was Active. Besides, the inhibition result (in the data set with Neutrophil [4]; in [2]; in the data set on dHL-60) was “inactive” throughout.
With `CCOC(=O)C(Cc1ccc(O)cc1)NC1=CC(=O)C(=O)c2ccccc21` (centres undefined), in data set [1], the inhibition entry is “inactive”.
On to `CCCc1cc(=O)[nH]c(=S)[nH]1`, for which the inhibition result with Neutrophil [5], in the data set on Neutrophil [4], with Neutrophil [6] and with dHL-60 was “Active” each time.
In the case of `CCCNc1ncnc2cc(-c3ccc(OC)cc3)sc12`, the inhibition result in [1] and in data set [2] was “inactive” in each case.
As to `CN1CCc2nc3sc(C(=O)Nc4cccc(C#N)c4)c(N)c3cc2C1`, the Drug metabolism entry in data set [7] is “Metabolite_Detected”; in data set [11], “Metabolite_Detected”; in data set [12], “Metabolite_Detected”; in data set [14], “Metabolite_Notdetected”; in data set [17], “Metabolite_Notdetected”. In addition, the outcome (in [3]; in the data set on Mus musculus [8]; in the data set with Mus musculus [9]; with Mus musculus [10]) was inactive. Further, the inhibition entry in the data set on Neutrophil [5], with Neutrophil [4], in the data set with Neutrophil [6] and with dHL-60 was “Active” each time. For the same compound, in [2], the inhibition result was “inactive”. Also, the outcome with Mus musculus [13] and in the data set with Mus musculus [16] was Active. The Activity result in the data set on TERT-RPE1 [15] is “Toxic”.
As to `Nc1cc2c3c(cccc3c1)C(=O)N(N)C2=O`, the Drug metabolism entry in data set [7], in [19], in data set [12], in [14] and in [17] was “Metabolite_Notdetected” each time. In addition, the result (in [3]; in the data set on Mus musculus [8]) was inactive. Also, the inhibition entry (in the data set with Neutrophil [5]; with Neutrophil [4]; in the data set on Neutrophil [6]; in the data set with dHL-60; in data set [20]) was “Active” throughout. For the same compound, the inhibition entry in data set [18] is “inactive”. Further, in the data set on Mus musculus [21], the result was Active. Also, in the data set with TERT-RPE1 [22], the Activity entry was “Non-Toxic”.
For the compound `CCc1c(O)[nH]c2nc3ccccc3n2c1=O`, the outcome with Mus musculus [23] was Active. Also, the outcome in the data set with Mus musculus [8], in the data set with Mus musculus [9], with Mus musculus [10] and with Mus musculus [24] was inactive.
For `Cc1cccc(Nc2ccccc2C(=O)O)c1C`, the outcome in the data set on Mus musculus [8], with Mus musculus [9] and in the data set with Mus musculus [10] was inactive. In addition, in the data set with Mus musculus [25], the result was Active.
As for `CCCOc1ccc(C2C(C#N)=C(N)SC(N)=C2C#N)cc1OC`, the result in [3] was Active.
Consider `N#CC1=C(N)Oc2c(c(=O)sc3ccccc23)C1c1ccc(F)cc1` (centres undefined), for which the inhibition result in [1] is “inactive”.
